How the values were obtained:
[1] = test system: 3T3-L1 adipocytes; experiment: Fatty acid oxidation (O2 consumption response to palmitate) in adipocytes; format: cell-based; conditions: FIG. 8, % change from control
Method: (§1) Cell Culture: C2C12 and 3T3-L1 preadipocytes (American Type Culture Collection) were plated at a density of 8000 cells/cm^2 (10 cm^2 dish) and grown in Dulbecco's modified eagle's medium (DMEM) containing 10% fetal bovine serum (FBS), and antibiotics (growth medium) at 37° C. in 5% CO2. Confluent 3T3-L1 preadipocytes were induced to differentiate with a standard differentiation medium consisting of DMEM medium supplemented with 10% FBS, 250 nM dexamethasone, 0.5 mM 3-Isobutyl-1-methylxanthine (IBMX) and 1% penicillin-streptomycin. Preadipocytes were maintained in this differentiation medium for 3 days and subsequently cultured in growth medium. Cultures were re-fed every 2-3 days to allow >90% cells to reach fully differentiation before conducting chemical treatment. […]
Fatty acid oxidation: Cellular oxygen consumption was measured using a Seahorse Bioscience XF24 analyzer (Seahorse Bioscience, Billerica, Mass.) in 24-well plates at 37° C., as described by Feige et al (1) with slight modifications. […] Data for each sample were normalized to the pre-palmitate injection baseline for that sample and expressed as % change from that baseline. […] The area under of the curve of O2 consumption change from baseline for each sample was then calculated and used for subsequent analysis.

[2] = test system: C2C12 myotubes; experiment: Glucose utilization (extracellular acidification) in myotubes; format: cell-based; conditions: FIG. 9
Method: as §1
(§2) Glucose Utilization: In the absence of a fatty acid source and oxidative metabolism, glycolysis and subsequent lactate production results in extracellular acidification, which was also measured using a Seahorse Bioscience XF24 analyzer. […] Data for each sample were normalized to the pre-glucose injection baseline for that sample and expressed as % change from that baseline. The area under of the curve of extracellular acidification change from baseline for each sample was the calculated and used for subsequent analysis.

[3] = test system: 3T3-L1 adipocytes; experiment: Glucose utilization (extracellular acidification) in adipocytes; format: cell-based; conditions: FIG. 10
Method: as §1, §2

[4] = test system: C2C12 myotubes; experiment: Mitochondrial biogenesis (mitochondrial mass, NAO probe); format: cell-based; conditions: FIG. 13
Method: Cell Culture: C2C12 and 3T3-L1 preadipocytes (American Type Culture Collection) were plated at a density of 8000 cells/cm^2 (10 cm^2 dish) and grown in Dulbecco's modified eagle's medium (DMEM) containing 10% fetal bovine serum (FBS), and antibiotics (growth medium) at 37° C. in 5% CO2. Confluent 3T3-L1 preadipocytes were induced to differentiate with a standard differentiation medium consisting of DMEM medium supplemented with 10% FBS, 250 nM dexamethasone, 0.5 mM 3-Isobutyl-1-methylxanthine (IBMX) and 1% penicillin-streptomycin. Preadipocytes were maintained in this differentiation medium for 3 days and subsequently cultured in growth medium. Cultures were re-fed every 2-3 days to allow >90% cells to reach fully differentiation before conducting chemical treatment. For differentiation of C2C12 cells, cells were grown to 100% confluence, transferred to differentiation medium (DMEM with 2% horse serum and 1% penicillin-streptomycin), and fed with fresh differentiation medium every day until myotubes were fully formed (3 days). Mitochondrial biogenesis: Mitochondrial biogenesis was assessed as change in mitochondrial mass, as previously described (2). The mitochondrial probe NAO (Invitrogen, Carlsbad, Calif.) was used to analyze mitochondrial mass by fluorescence (excitation 485 nm and emission 520 nm) and quantitative data was obtained with a fluorescence microplate reader (Synergy HT, BioTek Instruments, Winooski, Vt.). The intensity of fluorescence was expressed as arbitrary units per μg protein and normalized to control values within each assay.

[5] = Circulating level achieved by dietary dosing; format: in vivo, human
Description: In some embodiments, the dosing of leucine, any metabolites of leucine, and/or vitamin B6 can be designed to achieve a specified physiological concentration or circulating level of leucine, metabolites of leucine and/or vitamin B6. The physiological concentration can be a circulating level as measured in the blood stream of a subject. The subject can be a human or an animal. A selected dosing can be altered based on the characteristics of the subject, such as weight, rate of energy metabolism, genetics, ethnicity, height, or any other characteristic. The amount of leucine in a unit dose can be such that the circulating level of leucine in a subject is about or greater than about 0.25 mM, 0.5 mM, 0.75 mM, or 1 mM. A dosing of about 1,125 mg leucine can achieve a circulating level of leucine in a subject that is about 0.5 mM. A dosing of about 300 mg leucine can achieve a circulating level of leucine in a subject that is about 0.25 mM. A dosing of about 15 mg of vitamin B6 can achieve a circulating level of vitamin B6 that is about 100 nM. A dosing of about 7.5 mg of vitamin B6 can achieve a circulating level of vitamin B6 that is about 50 nM. The amount of vitamin B6 in a unit dose can be such that the circulating level of vitamin B6 in a subject is about or greater than about 10, 25, 50, 100, 150, or 200 nM. […]

- circulating level of leucine ([5]; dosing of about 300 mg leucine): about 0.25 mM
- circulating level of leucine ([5]; dosing of about 1,125 mg leucine): about 0.5 mM
SMILES: CC(C)C[C@H](N)C(=O)O [Leucine, leucine]
- increase in fatty acid oxidation [1]: 181%
- increase in glucose utilization [2]: no independent significant effect
- increase in glucose utilization [3]: no independent significant effect
- increase in mitochondrial biogenesis (mitochondrial biomass) [4]: about 15%

Source: patent US9901573B2, “Compositions, methods, and kits for regulating energy metabolism” (NuSirt Sciences, Inc., priority 2012, dated 2018)
